Literature values in patent publication US20260199368A1, “[…] SYSTEM CONTAINING REMIMAZOLAM” (LTS LOHMANN THERAPIE-SYSTEME AG, priority 2022, published 2026).

Conditions: intranasal administration; cited from earlier work

In the case of `COC(=O)CC[C@@H]1N=C(c2ccccn2)c2cc(Br)ccc2-n2c(C)cnc21` [remimazolam, methyl 3-{(4S)-8-bromo-1-methyl-6-(pyridin-2-yl)-4/-/-imidazo[1,2-a][1,4]benzodiazepin-4-yl}propanoate], the bioavailability is listed as “about 50%”.
